Assay results published in patent publication US6979666B2, “Dithianon-based fungicidal mixtures” (BASF Aktiengesellschaft, priority 2002, dated 2005).

Test system: Alternaria solani
Assay: Activity against early blight of tomato caused by Alternaria solani (protective spray on potted tomato plants)
Format: in vivo
Settings: tomato leaves, rated after 5 days, untreated control 72% infection
Protocol: The active compounds, separately or together, were prepared as a stock solution with 0.25% by weight of active compound in acetone or DMSO. 1% by weight of the emulsifier Uniperol® EL (wetting agent having emulsifying and dispersing action based on ethoxylated alkylphenols) was added to this solution, and the solution was diluted with water to the desired concentration.
Use example: Activity against early blight of tomato caused by Alternaria solani
Leaves of potted plants of the cultivar “Groβe Fleischtomate St. Pierre” were sprayed to runoff point with an aqueous suspension having the concentration of active compound stated below. The next day, the leaves were infected with an aqueous spore suspension of Alternaria solani in a 2% strength biomalt solution having a density of 0.17×10^6 spores/ml. The plants were then placed in a water-vapor-saturated chamber at 20–22° C. After 5 days, the early blight on the untreated, but infected control plants had developed to such an extent that the infection could be determined visually in %.
Evaluation is carried out by determining the infected leaf areas in percent. These percentages are converted into efficacies.
The efficacy (E) is calculated as follows using Abbot's formula: E=(1−α/β)·100 • α corresponds to the fungal infection of the treated plants in % and • β corresponds to the fungal infection of the untreated (control) plants in %
An efficacy of 0 means that the infection level of the treated plants corresponds to that of the untreated control plants; an efficacy of 100 means that the treated plants were not infected.
The expected efficacies of the active compound mixtures are determined using Colby's formula [S.R. Colby, Weeds 15, 20–22 (1967)] and compared with the observed efficacies.
Colby's Formula: E=x+y−x·y/100 • E expected efficacy, expressed in percent of the untreated control, when using the mixture of the active compounds A and B at the concentrations a and b • x efficacy, expressed in % of the untreated control, when using active compound A at a concentration of a • y efficacy, expressed in % of the untreated control, when using active compound B at a concentration of b

[1] = 8 ppm active compound in the spray liquid
[2] = 16 ppm active compound in the spray liquid
[3] = 31 ppm active compound in the spray liquid
[4] = 63 ppm active compound in the spray liquid

N#Cc1sc2c(=O)c3ccccc3c(=O)c=2sc1C#N [I, dithianon]
Efficacy in % of the untreated control [1]: 44% | Efficacy in % of the untreated control [2]: 65% | Efficacy in % of the untreated control [3]: 79% | Efficacy in % of the untreated control [4]: 86%

Cc1cc(C2CC2)nc(Nc2ccccc2)n1 [II-2, cyprodinil]
Efficacy in % of the untreated control [1]: 44% | Efficacy in % of the untreated control [2]: 72% | Efficacy in % of the untreated control [4]: 86%

Cc1cc(C)nc(Nc2ccccc2)n1 [II-1, pyrimethanil]
Efficacy in % of the untreated control [1]: 0% | Efficacy in % of the untreated control [2]: 0% | Efficacy in % of the untreated control [3]: 0% | Efficacy in % of the untreated control [4]: 0%
